Like-named read-outs stand apart in the source and are kept apart here.
How the values were obtained:
[1] = tested on: 3T3-L1 adipocytes; assay: Triglyceride levels (delipidation) in 3T3-L1 adipocytes; type: cell-based, Mouse; details: for TG levels: differentiated 3T3-L1 adipocytes, alone or combined with t10c12 CLA; for reduced triglyceride levels by, relative to the linoleic acid control: Example 15, CLA 50 uM
Procedure: Two well known AMPK activators with very different chemical structures are metformin and AICAR. Metformin is from the class of biguanides while AICAR is a ribonucleoside analog that is phosphorylated in the cell to form ZMP, an AMP mimetic. […] A lower 50 μM level of t10c12 CLA was used in the experiment to better measure any effects of the combinations.
We recognize the complex medical effects and dangers of ATRA, retinoids, or rexinoids, has limited their therapeutic use in humans.
We tested the role of PPARβ/δ with the use of GW0742, a PPARβ/δ agonist.
Activating ligands include hydroxysterols such as 24(S)-Hydroxycholesterol or 24(S),25-epoxycholesterol.
We treated 3T3-L1 adipocytes with control or CLA fatty acids, with or without a statin drug.

[2] = tested on: MCP-1 mRNA; assay: MCP-1 mRNA by real time PCR in 3T3-L1 adipocytes; type: cell-based, Mouse; details: 12 hrs
Procedure: CLA has been reported to cause inflammation which is considered a non-healthy condition. […] Metformin or AICAR was used in combination with t10c12 CLA in the media containing the adipocytes for 12 hrs. RNA was isolated and the inflammatory response, as measured by MCP-1 (an inflammatory cytokine) mRNA levels, was determined by real time PCR of the reverse transcribed RNA.

[3] = 14 d feeding trial of t10c12 CLA and metformin in ML mice; type: in vivo; details: for fat pad weights relative to control untreated mice: 0.25% CLA, either dose of metformin; for final weight of the epididymal (EPI) / final weight of the retroperitoneal (RP) / change in body weight (BW): mean ± SEM
Procedure: (§1) FIG. 1. […] Forty-two MC and 42 mL mice were fed diets containing soy oil or soy oil with 0.25% t10c12 CLA and drinking water containing either none, 0.33 mg/ml, or 3.33 mg/ml metformin (Met) for 14 days (n=6 mice per treatment). A positive control diet contained the standard amount of 0.5% t10c12 CLA without any metformin. Body weights were recorded and retroperitoneal (RP) and epididymal fat pads from all the mice were isolated and weighed.

[4] = 14 d feeding trial of t10c12 CLA and metformin in MC mice; type: in vivo; details: mean ± SEM
Procedure: as §1

[5] = tested on: 3T3-L1 adipocytes; assay: Microarray gene expression changes in 3T3-L1 adipocytes; type: cell-based, Mouse; details: compared with t10c12 CLA, data not shown
[6] = reference [18]; cited from earlier work
[7] = tested on: adipocytes; assay: Inflammatory response to phenformin in adipocytes; type: cell-based; details: compared with metformin
[8] = tested on: AMPK; assay: AMPK phosphorylation in 3T3-L1 adipocytes, western blot; type: cell-based, Mouse; details: for Phospho-AMPK Amount: 3T3-L1 adipocytes, LA = 1
Procedure: (§3) The level of phosphorylated AMPK and acetyl CoA carboxylase (ACC), one of AMPK's known in vivo substrates, was measured at various times after treating 3T3-L1 adipocytes with either 100 uM linoleic acid or trans-10, cis-12 CLA (t10c12 CLA). […] The total amounts of AMPK and ACC were also determined with antibodies that recognize the respective proteins regardless of phosphorylation status.
(§4) The phosphorylation levels of AMPK and ACC were then determined after treating 3T3-L1 adipocytes with either metformin, AICAR, or t10c12 CLA alone or in combination.

[9] = tested on: WAT of mice; assay: Microarray analysis of WAT of mice fed t10c12 CLA; type: in vivo
From the text: Recent microarray analyses of the WAT of mice fed t10c12 CLA by our laboratory and others found three major trends. […] This initial inflammatory response is transient: the expression levels of many of these genes returns to normal levels following the first week of treatment, and the remaining genes are expressed at lower levels than the initial response. […] In particular, carnitine palmitoyltransferase I (CPT1), uncoupling protein 1 (UCP1), and uncoupling protein 2 (UCP2) show increases. The response in UCP1 and UCP2 genes is quite strong, as the levels of the induced mRNAs are in the 95th and 90th percentiles of the most abundant mRNAs in the adipocyte, respectively. UCP1 is usually exclusively expressed in brown adipose tissue, so this is a remarkable change in expression pattern with likely physiological effects. There is not a consensus that increased metabolic heat output occurs in t10c12 CLA treatments, but this increased metabolism has been observed in some studies.

[10] = tested on: 3T3-L1 fibroblasts; assay: Integrated stress response (ISR) in 3T3-L1 fibroblasts, microarray; type: cell-based, Mouse; details: 3T3-L1 fibroblasts prior to differentiation
From the text: (§2) We have microarray analyses of 3T3-L1 fibroblasts prior to differentiation and from liver tissues in mice treated with t10c12 CLA that support the hypothesis that t10c12 CLA is selective in the types of cells responding. The ISR is a cell response that most cells are capable of inducing and is a key part of the response to t10c12 CLA [5, 19].

[11] = tested on: liver tissues; assay: Microarray analysis of liver tissues of mice treated with t10c12 CLA; type: in vivo
From the text: as §2

[12] = tested on: acetyl CoA carboxylase (ACC); details: for Phospho-ACC amount: 3T3-L1 adipocytes, LA = 1
Procedure: as §3, §4

[13] = 100 uM, from 30 min, persisted 16 hr, vs linoleic acid

Cc1cc(SCc2sc(-c3ccc(C(F)(F)F)c(F)c3)nc2C)ccc1OCC(=O)O [GW0742]
TG levels [1]: little effect on TG levels

CN(C)C(=N)N=C(N)N [Metformin]
MCP-1 induction relative to the LA control [2]: neither metformin nor AICAR alone produced a significant induction
fat pad weights relative to control untreated mice [3]: increased fat pad weights
final weight of the epididymal (EPI) ([3]; Met2 (2 mmol/L), 14 d): 1.06 ± 0.13 g
final weight of the retroperitoneal (RP) ([3]; Met2 (2 mmol/L), 14 d): 0.37 ± 0.1 g
change in body weight (BW) ([3]; Met2 (metformin 2 mmol/L drinking water), 14 d): 2.89 ± 1 g
final weight of the epididymal (EPI) ([3]; Met20 (20 mmol/L), 14 d): 1.08 ± 0.12 g
final weight of the retroperitoneal (RP) ([3]; Met20 (20 mmol/L), 14 d): 0.33 ± 0.06 g
change in body weight (BW) ([3]; Met20 (metformin 20 mmol/L drinking water), 14 d): 2.54 ± 0.51 g
change in body weight (BW) ([4]; Met2 (2 mmol/L), 14 d): 1.96 ± 0.9 g
final weight of the epididymal (EPI) ([4]; Met2 (2 mmol/L), 14 d): 0.59 ± 0.07 g
final weight of the retroperitoneal (RP) ([4]; Met2 (2 mmol/L), 14 d): 0.23 ± 0.04 g
change in body weight (BW) ([4]; Met20 (20 mmol/L), 14 d): 2.82 ± 0.96 g
final weight of the epididymal (EPI) ([4]; Met20 (20 mmol/L), 14 d): 0.48 ± 0.09 g
final weight of the retroperitoneal (RP) ([4]; Met20 (20 mmol/L), 14 d): 0.23 ± 0.06 g
induction of inflammatory genes (CD14, Clcf1, Cox2, Csf1, MCP-1, Osmr, PAI, SOCS3) [5]: lower levels of induction

[H]/N=C(/N)N/C(=N/[H])NCCc1ccccc1 [Phenformin]
lactic acidosis [6]: can cause toxic lactic acidosis
inflammatory response [7]: stronger than that observed with metformin
delipidation ([1]; Example 9): sufficient for the type of strong delipidation observed with t10c12 CLA treatments
p-AMPK levels ([8]; compared with metformin): higher p-AMPK levels

CCCCC/C=C\C=C\CCCCCCCCC(=O)O [CLA, trans-10, cis-12 CLA]
MCP-1 induction relative to the LA control [2]: 23 fold
MCP-1 mRNA levels ([2]; LA = 1): 23
UCP1 induced mRNA level, percentile of the most abundant mRNAs in the adipocyte ([9]; WAT of mice fed t10c12 CLA): 95 percentile
UCP2 induced mRNA level, percentile of the most abundant mRNAs in the adipocyte ([9]; WAT of mice fed t10c12 CLA): 90 percentile
expression of key adipocyte lipid-related genes ([9]; WAT of mice fed t10c12 CLA): reduced expression
mRNA levels of key fatty acid oxidation genes (CPT1, UCP1, UCP2) ([9]; WAT of mice fed t10c12 CLA): increased mRNA levels
inflammatory response (Cox2, cytokines) ([9]; first several days of dietary t10c12 CLA, transient): induce an inflammatory response
fat pad weights relative to control untreated mice [3]: no significant change
change in body weight (BW) ([3]; Met0 (no metformin), 14 d): 1.89 ± 0.95 g
final weight of the epididymal (EPI) ([3]; Met0, 14 d): 0.89 ± 0.17 g
final weight of the retroperitoneal (RP) ([3]; Met0, 14 d): 0.27 ± 0.08 g
change in body weight (BW) ([4]; Met0, 14 d): 1.42 ± 0.46 g
final weight of the epididymal (EPI) ([4]; Met0, 14 d): 0.31 ± 0.07 g
final weight of the retroperitoneal (RP) ([4]; Met0, 14 d): 0.1 ± 0.01 g
reduction in triglyceride levels ([1]; Example 2, CLA alone, vs LA control): 50%
reduced triglyceride levels by, relative to the linoleic acid control [1]: 25%
ISR response [10]: do not show this response
ISR in liver ([11]; compared with adipose tissue): weak ISR
delipidation or inflammatory response in liver ([11]; mice treated with t10c12 CLA): lacked a significant delipidation or inflammatory response
total amount of AMPK ([8]; 100 uM, 16 hr experiment): remained constant
level of phosphorylated AMPK [8, 13]: increased levels
Phospho-AMPK Amount ([8]; 2 hr): 6.0
Phospho-AMPK Amount ([8]; 8 hr): 1.7
total amount of ACC ([12]; 100 uM, 16 hr experiment): remained constant
level of phosphorylated ACC [12, 13]: increased levels
Phospho-ACC amount ([12]; 2 hr): 4.1
Phospho-ACC amount ([12]; 8 hr): 3.3

NC(=O)c1ncn([C@@H]2O[C@H](CO)[C@@H](O)[C@H]2O)c1N [AICAR, aminoimidazole carboxamide ribonucleotide, reference compound]
MCP-1 induction relative to the LA control [2]: neither metformin nor AICAR alone produced a significant induction

c1cc(-c2cnn3cc(-c4ccc(OCCN5CCCCC5)cc4)cnc23)ccn1 [compound C, reference compound]
phosphorylation of AMPK ([8]; Example 2, western blot): inhibited
phosphorylation of Acetyl-Coenzyme A Carboxylase (ACC) ([12]; Example 2, western blot): inhibited

C[C@H](CC[C@@H]1OC1(C)C)[C@H]1CC[C@H]2[C@@H]3CC=C4C[C@@H](O)CC[C@]4(C)[C@H]3CC[C@]12C [24(S),25-epoxycholesterol]
TG levels [1]: did not reduce TG levels

CC[C@H](C)C(=O)O[C@H]1CCC=C2C=C[C@H](C)[C@H](CC[C@@H]3C[C@@H](O)CC(=O)O3)[C@H]21 [mevastatin, Mevastatin]
reduced triglyceride levels by, relative to the linoleic acid control [1]: 10%

CC1=C(/C=C/C(C)=C/C=C/C(C)=C/C(=O)O)C(C)(C)CCC1 [ATRA, All trans retinoic acid]
TG levels [1]: increased amounts of TG

CC(C)[C@@H](O)CC[C@@H](C)[C@H]1CC[C@H]2[C@@H]3CC=C4C[C@@H](O)CC[C@]4(C)[C@H]3CC[C@]12C [24(S)-Hydroxycholesterol]
TG levels [1]: did not reduce TG levels

CC1=C(/C=C/C(C)=C/C=C/C(C)=C/CO)C(C)(C)CCC1 [vitamin A, retinol]
TG levels [1]: little impact

Reference: patent publication US20100152275A1, “Drug or Supplement Combination with Conjugated Linoleic Acid for Fat Loss in Mammals” (Kaloness, Inc., priority 2008, published 2010)
